Measurements reported in the supplement of paper PMC10307832.

Key:
Assay in all cases: relative viability (nuclei count vs DMSO), 5 days (fraction); higher = more cells survive
[1] = compound: C1CC(C1)(C(=O)O)C(=O)O.[NH2-].[NH2-].[Pt+2] [Carboplatin] + COc1cc2c(Oc3ccc(NC(=O)C4(C(=O)Nc5ccc(F)cc5)CC4)cc3F)ccnc2cc1OCCCN1CCOCC1 [Foretinib] (partner 0.25 µM)
Procedure, shortened: (§1)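 Relative viability was taken as the ratio of nuclei in treated wells to nuclei in vehicle wells. Lung cancer cell lines in 1536-well plates received compounds by pin tool one day after seeding, either one drug alone or a fixed anchor-drug dose plus five library-drug doses (not always all listed) in √10 steps. Nuclei were counted on 4× images after 5 days of treatment, and values are medians of duplicate plates.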

[2] = compound: C1CC(C1)(C(=O)O)C(=O)O.[NH2-].[NH2-].[Pt+2] [Carboplatin] + CC(C)C[C@H](NC(=O)[C@H](Cc1ccccc1)NC(=O)c1cnccn1)B(O)O [Bortezomib] (partner 0.002 µM)
Procedure, shortened: as §1

[3] = compound: CC[C@H](C)N1C=C(C2=C(C=C(C=C21)C3=CN=C(C=C3)N4CCNCC4)C(=O)NCC5=C(C=C(NC5=O)C)C)C [GSK126] + Cc1cc(Nc2cc(N3CCN(C)CC3)nc(Sc3ccc(NC(=O)C4CC4)cc3)n2)n[nH]1 [Tozasertib] (partner 0.1 µM)
Procedure, shortened: as §1

[4] = compound: NS(=O)(=O)OC[C@@H]1C[C@@H](n2ccc3c(N[C@H]4CCc5ccccc54)ncnc32)C[C@@H]1O [MLN4924] + O=C(CCCCCCC(=O)Nc1ccccc1)NO [Vorinostat] (partner 1 µM)
Procedure, shortened: as §1

Row | Cell Line | relative viability ([1]; first compound 0.08 µM) | relative viability ([1]; first compound 0.253 µM) | relative viability ([1]; first compound 0.8 µM) | relative viability ([1]; first compound 2.53 µM) | relative viability ([1]; first compound 8 µM) | relative viability ([2]; first compound 0.08 µM) | relative viability ([2]; first compound 0.253 µM) | relative viability ([2]; first compound 0.8 µM) | relative viability ([2]; first compound 2.53 µM) | relative viability ([2]; first compound 8 µM) | relative viability ([3]; first compound 0.08 µM) | relative viability ([3]; first compound 0.253 µM) | relative viability ([3]; first compound 0.8 µM) | relative viability ([3]; first compound 2.53 µM) | relative viability ([3]; first compound 8 µM) | relative viability ([4]; first compound 0.04 µM) | relative viability ([4]; first compound 0.1265 µM) | relative viability ([4]; first compound 0.4 µM) | relative viability ([4]; first compound 1.265 µM) | relative viability ([4]; first compound 4 µM)
1 | HCC-78 | 0.616 | 0.555 | 0.54 | 0.526 | 0.545 | 0.561 | 0.502 | 0.383 | 0.497 | 0.508 | 0.527 | 0.54 | 0.401 | 0.386 | 0.405 | 0.442 | 0.309 | 0.5 | 0.245 | 0.225
2 | HCC-366 | 0.91 | 0.877 | 0.957 | 0.918 | 0.759 | 1.08 | 1.05 | 1.09 | 0.957 | 0.685 | 0.193 | 0.117 | 0.123 | 0.0783 | 0.0929 | 0.327 | 0.348 | 0.322 | 0.0422 | 0.0392
3 | HCC-827 | 1.05 | 1.03 | 1.01 | 0.995 | 0.912 | 1.18 | 1.09 | 1.09 | 1.02 | 0.991 | 0.428 | 0.433 | 0.453 | 0.387 | 0.408 | 0.805 | 0.716 | 0.636 | 0.242 | 0.215
4 | HOP-62 | 0.984 | 1 | 1.07 | 1.04 | 0.994 | 0.922 | 0.87 | 0.593 | 0.668 | 0.603 | 0.314 | 0.397 | 0.427 | 0.261 | 0.308 | 0.395 | 0.378 | 0.116 | 0.0547 | 0.0779
5 | IA-LM | 1.25 | 1.06 | 1.21 | 1.19 | 1 | 0.804 | 0.836 | 0.633 | 0.792 | 0.535 | – | – | – | – | – | 0.653 | 0.194 | 0.17 | 0.0544 | 0.0516
6 | LC-2-ad | 1.03 | 1.04 | 0.994 | 0.874 | 0.679 | 1.09 | 1.1 | 1.11 | 0.985 | 0.831 | 0.43 | 0.472 | 0.428 | 0.458 | 0.419 | 0.612 | 0.63 | 0.508 | 0.214 | 0.202
7 | LK-2 | 1.46 | 1.24 | 1.17 | 1.01 | 1.26 | – | – | – | – | – | 0.209 | 0.212 | 0.175 | 0.183 | 0.189 | 0.271 | 0.277 | 0.227 | 0.509 | 0.198
8 | NCI-H358 | 0.736 | 0.783 | 0.721 | 0.764 | 0.651 | – | – | – | – | – | 0.105 | 0.116 | 0.133 | 0.12 | 0.122 | 0.621 | 0.479 | 0.264 | 0.0895 | 0.0817
9 | NCI-H522 | – | – | – | – | – | – | – | – | – | – | 0.535 | 0.507 | 0.503 | 0.527 | 0.605 | 0.704 | 0.726 | 0.567 | 0.344 | 0.378
10 | NCI-H1299 | 1.13 | 1.09 | 1.04 | 1.05 | 0.996 | 1.07 | 1.01 | 1.07 | 0.982 | 0.902 | – | – | – | – | – | – | – | – | – | –
11 | NCI-H1395 | 1.03 | 1.03 | 0.805 | 0.709 | 0.726 | – | – | – | – | – | 0.787 | 0.763 | 0.831 | 0.683 | 0.669 | 0.556 | 0.766 | 0.523 | 0.341 | 0.361
12 | NCI-H1563 | 0.931 | 0.954 | 0.92 | 0.929 | 0.888 | 1.02 | 0.886 | 0.937 | 0.876 | 0.77 | – | – | – | – | – | – | – | – | – | –
13 | NCI-H1623 | 0.959 | 0.919 | 0.884 | 0.747 | 0.725 | – | – | – | – | – | 0.453 | 0.487 | 0.419 | 0.416 | 0.353 | – | – | – | – | –
14 | NCI-H1648 | – | – | – | – | – | – | – | – | – | – | 0.386 | – | 0.478 | 0.518 | 0.321 | 0.249 | 0.296 | 0.276 | 0.224 | 0.309
15 | NCI-H1703 | 0.446 | 0.397 | 0.34 | 0.403 | 0.37 | 0.494 | 0.503 | 0.347 | 0.425 | 0.34 | – | – | – | – | – | – | – | – | – | –
16 | NCI-H1792 | – | – | – | – | – | 1.06 | 0.933 | 0.885 | 0.844 | 0.862 | – | – | – | – | – | – | – | – | – | –
17 | NCI-H1793 | 0.939 | 0.773 | 0.882 | 0.718 | 0.724 | – | – | – | – | – | 0.324 | 0.331 | 0.422 | 0.475 | 0.363 | 0.665 | 0.662 | 0.886 | 0.328 | 0.205
18 | NCI-H1944 | 0.971 | 0.855 | 0.854 | 0.789 | 0.601 | – | – | – | – | – | 0.261 | 0.24 | 0.247 | 0.23 | 0.28 | 0.543 | 0.539 | 0.613 | 0.203 | 0.158
19 | NCI-H2170 | 0.994 | 0.527 | 1.02 | 0.942 | 0.468 | – | – | – | – | – | 0.697 | 0.661 | 0.764 | 0.651 | 0.661 | 0.774 | 0.364 | 0.326 | 0.135 | 0.13
20 | NCI-H2342 | 0.949 | 0.961 | 0.993 | 0.865 | 0.785 | – | – | – | – | – | 0.538 | 0.471 | 0.613 | 0.507 | 0.597 | 0.809 | 0.814 | 0.837 | 0.873 | 0.625
21 | SK-MES-1 | 1.24 | 0.95 | 0.906 | 1.06 | 0.818 | – | – | – | – | – | 0.852 | 0.988 | 0.937 | 0.813 | 0.81 | 1.14 | 1.02 | 0.351 | 0.162 | 0.216
22 | SW 900 | 1.08 | 0.789 | 0.677 | 0.769 | 0.682 | – | – | – | – | – | 0.577 | 0.534 | 0.635 | 0.632 | 0.51 | – | 0.414 | 0.182 | 0.175 | 0.208
